Measured values: patent US20060110451A1, “Formulations of [1,4]diazepino[6,7,1-IJ]quinoline derivatives” (priority 2004, published 2006)
Read-outs that look alike come from different tables or passages of the source.

Test: Ascending multiple dose pharmacokinetics of enteric coated capsules in schizophrenic patients
Type: in vivo, human
Settings: for Tmax / half-life / AUC(0-t) / Cmax / AUC(0-inf): plasma
Method: Ascending multiple doses of 100, 150, and 250 mg Compound A.HCl were administered as twice-daily regimen (q12h) for 10 days in cohorts of 8 schizophrenic patients (6 active and 2 placebo). Blood samples for Compound A.HCl analysis were obtained on day 1 within 2 hours of test article administration and at various time points from 0.5 to 24 hours after test article administration. On day 10, blood samples were collected up to 12 hours after dose administration. Doses were administered orally after an overnight fast of at least 10 hours on these 2 days. Trough PK samples were collected on days 6, 8, and 9 to assess whether steady-state has been reached.
FIGS. 7A and 7B show the relationship between Cmax vs. dose and AUC vs. dose, respectively.

## Cl.c1cc2c3c(c1)[C@H]1CCC[C@H]1CN3CCNC2 [Compound A.HCl, (9aR,12aS)-4,5,6,7,9,9a,10,11,12,12a-decahydrocyclopenta[c][1,4]diazepino[6,7,1-ij]quinoline hydrochloride]
After excluding 2 outlier patients
  relationship between dose and exposure: approximately linear
At the 250 mg q12h dose level
  difference in Tmax or t1/2: no significant difference
human, in vivo
  differences in pharmacokinetics between healthy subjects and schizophrenic patients: No significant differences
human, oral, schizophrenic patients, single and multiple dose administration, enteric-coated formulation, read-out: mean Tmax
  Tmax: 4 to 5 h
human, oral, schizophrenic patients, single dose administration, read-out: mean elimination t1/2
  half-life: 8 to 10 h
human, po, 100 mg, Schizophrenia patients, multiple oral doses (q12 h) 100 mg, day 10, read-out: AUCss (AUC0-12) (Geom. Mean)
  AUC(0-t): 31.2 ng·h/mL
human, po, 100 mg, Schizophrenia patients, multiple oral doses (q12 h) 100 mg, day 10, read-out: AUCss (AUC0-12) (Mean)
  AUC(0-t): ~33.2 ng·h/mL
human, po, 100 mg, Schizophrenia patients, multiple oral doses (q12 h) 100 mg, day 10, read-out: Cmax (Geom. Mean)
  Cmax: 3.82 ng/mL
human, po, 100 mg, Schizophrenia patients, multiple oral doses (q12 h) 100 mg, day 10, read-out: Cmax (Mean)
  Cmax: 4 ng/mL
human, po, 100 mg, Schizophrenia patients, multiple oral doses (q12 h) 100 mg, day 10, read-out: Tmax (Geom. Mean)
  Tmax: 4.6 h
human, po, 100 mg, Schizophrenia patients, multiple oral doses (q12 h) 100 mg, day 10, read-out: Tmax (Mean)
  Tmax: 4.8 h
human, po, 100 mg, Schizophrenia patients, single oral dose 100 mg, day 1, read-out: AUC0-∞ (Geom. Mean)
  AUC(0-inf): 27.1 ng·h/mL
human, po, 100 mg, Schizophrenia patients, single oral dose 100 mg, day 1, read-out: AUC0-∞ (Mean)
  AUC(0-inf): 30.6 ng·h/mL
human, po, 100 mg, Schizophrenia patients, single oral dose 100 mg, day 1, read-out: Cmax (Geom. Mean)
  Cmax: 2.07 ng/mL
human, po, 100 mg, Schizophrenia patients, single oral dose 100 mg, day 1, read-out: Cmax (Mean)
  Cmax: 2.21 ng/mL
human, po, 100 mg, Schizophrenia patients, single oral dose 100 mg, day 1, read-out: Tmax (Geom. Mean)
  Tmax: 4.7 h
human, po, 100 mg, Schizophrenia patients, single oral dose 100 mg, day 1, read-out: Tmax (Mean)
  Tmax: 4.8 h
human, po, 100 mg, Schizophrenia patients, single oral dose 100 mg, day 1, read-out: t1/2 (Geom. Mean) (converted)
  half-life: 8.67 h
human, po, 100 mg, Schizophrenia patients, single oral dose 100 mg, day 1, read-out: t1/2 (Mean) (converted)
  half-life: 8.93 h
human, po, 150 mg, Schizophrenia patients, multiple oral doses (q12 h) 150 mg, day 10, read-out: AUCss (AUC0-12) (Geom. Mean)
  AUC(0-t): 51.3 ng·h/mL
human, po, 150 mg, Schizophrenia patients, multiple oral doses (q12 h) 150 mg, day 10, read-out: AUCss (AUC0-12) (Mean)
  AUC(0-t): ~54.9 ng·h/mL
human, po, 150 mg, Schizophrenia patients, multiple oral doses (q12 h) 150 mg, day 10, read-out: Cmax (Geom. Mean)
  Cmax: 6.67 ng/mL
human, po, 150 mg, Schizophrenia patients, multiple oral doses (q12 h) 150 mg, day 10, read-out: Cmax (Mean)
  Cmax: 7.21 ng/mL
human, po, 150 mg, Schizophrenia patients, multiple oral doses (q12 h) 150 mg, day 10, read-out: Tmax (Geom. Mean)
  Tmax: 4.2 h
human, po, 150 mg, Schizophrenia patients, multiple oral doses (q12 h) 150 mg, day 10, read-out: Tmax (Mean)
  Tmax: 4.3 h
human, po, 150 mg, Schizophrenia patients, single oral dose 150 mg, day 1, read-out: AUC0-∞ (Geom. Mean)
  AUC(0-inf): 34 ng·h/mL
human, po, 150 mg, Schizophrenia patients, single oral dose 150 mg, day 1, read-out: AUC0-∞ (Mean)
  AUC(0-inf): 35.6 ng·h/mL
human, po, 150 mg, Schizophrenia patients, single oral dose 150 mg, day 1, read-out: Cmax (Geom. Mean)
  Cmax: 3.09 ng/mL
human, po, 150 mg, Schizophrenia patients, single oral dose 150 mg, day 1, read-out: Cmax (Mean)
  Cmax: 3.37 ng/mL
human, po, 150 mg, Schizophrenia patients, single oral dose 150 mg, day 1, read-out: Tmax (Geom. Mean)
  Tmax: 4.2 h
human, po, 150 mg, Schizophrenia patients, single oral dose 150 mg, day 1, read-out: Tmax (Mean)
  Tmax: 4.6 h
human, po, 150 mg, Schizophrenia patients, single oral dose 150 mg, day 1, read-out: t1/2 (Geom. Mean) (converted)
  half-life: 9.25 h
human, po, 150 mg, Schizophrenia patients, single oral dose 150 mg, day 1, read-out: t1/2 (Mean) (converted)
  half-life: 9.49 h
human, po, 250 mg, Schizophrenia patients, multiple oral doses (q12 h) 250 mg, day 10, read-out: AUCss (AUC0-12) (Geom. Mean)
  AUC(0-t): 134 ng·h/mL
human, po, 250 mg, Schizophrenia patients, multiple oral doses (q12 h) 250 mg, day 10, read-out: AUCss (AUC0-12) (Mean)
  AUC(0-t): ~173 ng·h/mL
human, po, 250 mg, Schizophrenia patients, multiple oral doses (q12 h) 250 mg, day 10, read-out: Cmax (Geom. Mean)
  Cmax: 15.9 ng/mL
human, po, 250 mg, Schizophrenia patients, multiple oral doses (q12 h) 250 mg, day 10, read-out: Cmax (Mean)
  Cmax: 20.6 ng/mL
human, po, 250 mg, Schizophrenia patients, multiple oral doses (q12 h) 250 mg, day 10, read-out: Tmax (Mean)
  Tmax: 4.8 h
human, po, 250 mg, Schizophrenia patients, single oral dose 250 mg, day 1, read-out: AUC0-∞ (Geom. Mean)
  AUC(0-inf): 76.1 ng·h/mL
human, po, 250 mg, Schizophrenia patients, single oral dose 250 mg, day 1, read-out: AUC0-∞ (Mean)
  AUC(0-inf): 109 ng·h/mL
human, po, 250 mg, Schizophrenia patients, single oral dose 250 mg, day 1, read-out: Cmax (Geom. Mean)
  Cmax: 5.71 ng/mL
human, po, 250 mg, Schizophrenia patients, single oral dose 250 mg, day 1, read-out: Cmax (Mean)
  Cmax: 8.89 ng/mL
human, po, 250 mg, Schizophrenia patients, single oral dose 250 mg, day 1, read-out: Tmax (Geom. Mean)
  Tmax: 4.7 h
human, po, 250 mg, Schizophrenia patients, single oral dose 250 mg, day 1, read-out: Tmax (Mean)
  Tmax: 5 h
human, po, 250 mg, Schizophrenia patients, single oral dose 250 mg, day 1, read-out: t1/2 (Geom. Mean) (converted)
  half-life: 7.74 h
human, po, 250 mg, Schizophrenia patients, single oral dose 250 mg, day 1, read-out: t1/2 (Mean) (converted)
  half-life: 8.04 h
